The values below come from PubChem BioAssay AID488810 (Sanford-Burnham Center for Chemical Genomics, 2010).

Several values for one entry are separate records, joined by “and”; a condition that tells them apart may be missing. Equal values may be shown once. Activity calls are given as the source filed them.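 The calls were made as follows: active = compounds with IC50 below 20 µM; inactive = the rest.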

Chain of Type-1 angiotensin II receptor (Homo sapiens) (P30556 whole entry, looked up): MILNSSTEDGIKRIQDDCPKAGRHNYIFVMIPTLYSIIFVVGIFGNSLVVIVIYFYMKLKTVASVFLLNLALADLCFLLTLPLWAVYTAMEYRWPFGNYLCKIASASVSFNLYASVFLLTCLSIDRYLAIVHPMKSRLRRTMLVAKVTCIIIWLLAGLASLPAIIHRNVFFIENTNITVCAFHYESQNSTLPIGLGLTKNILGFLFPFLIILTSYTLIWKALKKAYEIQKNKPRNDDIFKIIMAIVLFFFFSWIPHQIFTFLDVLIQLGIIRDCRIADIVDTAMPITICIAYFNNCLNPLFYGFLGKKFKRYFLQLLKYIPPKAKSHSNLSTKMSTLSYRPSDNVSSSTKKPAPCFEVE

The assay has as its target Type-1 angiotensin II receptor (Homo sapiens) (UniProt P30556). As to the kind of experiment: AGTR1 antagonism selectivity check – cell-based, CHO-K1 PathHunter, luminescence, selectivity assay for APJ antagonist project, SAR follow-up (AID 488810).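 Also: agonist challenge with angiotensin II at 50 nM final near its EC80.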 To be noted: CHO-K1 AGTR1 PathHunter beta-arrestin, antagonist mode.
For orientation: IC50 means the concentration needed to halve the response being measured. With `Cc1c(C(=O)Oc2coc(CSc3ncccn3)cc2=O)cccc1[N+](=O)[O-]`, the IC50 is > 79 µM (inactive).

With `Cc1cccc(C2CC3(CC(C)(C)NC(=S)N3)Oc3cc(O)cc(C)c32)c1` (stereo unspecified), the IC50 entry is “inactive”.

For `Cc1ccc(C(=O)CNc2cc(C)ccc2C)cc1`, the half-maximal inhibitory concentration (IC50) is 3.44 µM.

As to `Cc1cccc(C2CC3(CC(C)(C)NC(=S)N3)Oc3cc(O)c(Cl)cc32)c1` (stereo unspecified), the IC50 entry is “inactive”.

On to `Cc1cccc(N=C2C(=O)Nc3c(Cl)cccc32)c1`, for which the IC50 was 3.32 µM.

Turning to `CC(=O)Oc1cc2c(cc1Cl)C(c1ccccc1Cl)CC1(CC(C)(C)NC(=S)N1)O2` (stereo unspecified), the IC50 entry is “inactive”.

With `CC(C)(C)c1ccc(C(=O)Oc2coc(CSc3ncccn3)cc2=O)cc1`, the IC50 was > 79 µM (inactive).

Turning to `CC1(C)CC2(CC(c3ccc(F)cc3)c3ccc(O)cc3O2)NC(=S)N1` (stereo unspecified), the IC50 is > 79 µM (inactive).

On to `Cc1ccnc(S(=O)(=O)Cc2cc(=O)c(OC(=O)c3ccc(Cl)c([N+](=O)[O-])c3)co2)n1`, for which the IC50 was > 79 µM (inactive).

As for `Cc1c(O)ccc2c1OC1(CC2c2ccccc2Cl)CC(C)(C)NC(=S)N1` (stereo unspecified), the IC50 was > 79 µM (inactive).

Regarding `CCOc1ccc(C(=O)Oc2coc(CSc3ncccn3)cc2=O)cc1`, the IC50 is > 79 µM (inactive).

On to `Cc1ccnc(SCc2cc(=O)c(OC(=O)c3ccccc3)co2)n1`, for which the IC50 was > 79 µM (inactive).

In the case of `Cc1cc(C)nc(NNS(=O)(=O)c2ccc(F)c(Cl)c2)n1`, the IC50 is 3.78 µM.

As to `Cc1ccc(C(=O)Oc2coc(CSc3ncccn3)cc2=O)cc1`, the IC50 is > 79 µM (inactive).

On to `Cc1cc(C)nc(SCc2cc(=O)c(OC(=O)c3ccc(S(=O)(=O)N(C)C)cc3)co2)n1`, for which the IC50 was > 79 µM (inactive).

For the compound `COC(=O)C1NN=C(C(=O)c2ccc(Cl)cc2)C1c1ccc(OC)cc1` (stereo unspecified), the IC50 is 16.1 µM.

As to `CCN(CC)CC(=O)c1ccc(-c2ccccc2)cc1`, the IC50 is 10 µM.

On to `Cc1ccc(NCC(O)c2ccccc2)cc1` (stereo unspecified), for which the IC50 was > 79 µM (inactive).

Consider `Cc1ccnc(SCc2cc(=O)c(OC(=O)c3ccc(Cl)cc3)co2)n1`, for which the IC50 is > 79 µM (inactive).

Turning to `COc1ccc(C2CC3(CC(C)(C)NC(=S)N3)Oc3cc(O)cc(C)c32)cc1` (stereo unspecified), the IC50 was > 79 µM (inactive).

On to `Cc1ccc(C(=O)Oc2coc(CSc3ncccn3)cc2=O)cc1[N+](=O)[O-]`, for which the IC50 is > 79 µM (inactive).

Regarding `Cc1ccc(C(=O)Oc2coc(CSc3nccc(C)n3)cc2=O)cc1`, the IC50 was > 79 µM (inactive).

Take `Cc1ccnc(SCc2cc(=O)c(OC(=O)c3ccc(C)c([N+](=O)[O-])c3)co2)n1`: the IC50 was > 79 µM (inactive).

As to `COc1ccc(C(=O)Oc2coc(CSc3ncccn3)cc2=O)cc1`, the IC50 was > 79 µM (inactive).

On to `Cc1ccc(C(=O)Oc2coc(CSc3ncccn3)cc2=O)cc1C`, for which the IC50 is > 79 µM (inactive).

As to `Cc1cc(C)nc(SCc2cc(=O)c(OC(=O)c3cc(Cl)ccc3[N+](=O)[O-])co2)n1`, the IC50 entry was “inactive”.

Turning to `O=S(=O)(NN=Cc1ccc(-c2ccccc2Cl)o1)c1ccccc1`, the IC50 entry was “inactive”.

On to `O=C(Nc1nc2ccc(F)cc2s1)c1ccccn1`, for which the half-inhibitory concentration (IC50) is 5.27 µM.

With `O=C(Oc1coc(CSc2ccccc2)cc1=O)c1ccc(Cl)c([N+](=O)[O-])c1`, the IC50 was > 79 µM (inactive).

As for `CCOc1ccc(N=C2C(=O)Nc3ccc(C)c(Br)c32)cc1`, the IC50 was 7.56 µM.

For the compound `NC(=O)c1ccccc1NCC(=O)c1ccc(Cl)cc1`, the half-maximal inhibitory concentration (IC50) was 3.24 µM.

On to `CC(C)OC(=O)CN1C(=O)C(=O)c2ccccc21`, for which the half-inhibitory concentration (IC50) is 4.99 µM and > 79 µM (inactive).

For `COc1cccc(/C=C/c2ccc3cccc(O)c3n2)c1OC`, the IC50 is 14.1 µM.

Regarding `Cc1ccccc1C1CC2(CC(C)(C)NC(=S)N2)Oc2cc(O)c(Cl)cc21` (stereo unspecified), the IC50 is > 79 µM (inactive).

Consider `CC1(C)CC2(CC(c3ccccc3F)c3cc(Cl)c(O)cc3O2)NC(=S)N1` (stereo unspecified), for which the IC50 was > 79 µM (inactive).

On to `Cc1cc(C)nc(SCc2cc(=O)c(OC(=O)c3ccc(C)c([N+](=O)[O-])c3)co2)n1`, for which the IC50 is > 79 µM (inactive).

For `Cc1ccnc(SCc2cc(=O)c(OC(=O)c3ccc(OC(F)(F)F)cc3)co2)n1`, the IC50 is > 79 µM (inactive).

Consider `Oc1cccc2ccc(/C=C/c3ccccc3Cl)nc12`, for which the concentration for half-maximal inhibition (IC50) was 17 µM.

`Cc1ccc(OCC(=O)OCC(=O)c2cccc([N+](=O)[O-])c2)cc1C`: the half-inhibitory concentration (IC50) was 15.8 µM.

Take `Cc1ccc(C)c(NCC(=O)c2ccc(Cl)cc2)c1`: the IC50 is 1.27 µM.

As to `C=CCSC1=NC2(CC(c3ccccc3)c3c(C)cc(O)cc3O2)CC(C)(C)N1` (stereo unspecified), the IC50 is > 79 µM (inactive).

Take `CSc1cccc(N=C2C(=O)Nc3ccccc32)c1`: the IC50 was 5.13 µM and 8.85 µM.

Regarding `COc1cc(C(=O)Oc2coc(CSc3ncccn3)cc2=O)c([N+](=O)[O-])cc1OC`, the IC50 is > 79 µM (inactive).

With `CC(=O)Nc1ccc(NC(=O)CCC(=O)OCC(=O)c2ccc(C)c([N+](=O)[O-])c2)cc1`, the IC50 entry was “inactive”.

As to `Cc1ccc2nc(C)cc(C(=O)OCC(=O)c3ccc(Cl)c([N+](=O)[O-])c3)c2c1`, the concentration for half-maximal inhibition (IC50) is 7.74 µM.

On to `CC(C)(C)c1ccc(-n2nc(C#N)c(Cl)cc2=O)cc1`, for which the IC50 was 8.21 µM.

In the case of `Cc1ccnc(SCc2cc(=O)c(OC(=O)c3cccc([N+](=O)[O-])c3)co2)n1`, the IC50 is > 79 µM (inactive).

In the case of `Cc1cc(C)nc(SCc2cc(=O)c(OC(=O)c3cc([N+](=O)[O-])ccc3Cl)co2)n1`, the IC50 entry was “inactive”.

`COc1ccccc1NCC(O)c1ccc(Cl)cc1` (stereo unspecified): the IC50 is > 79 µM (inactive).

With `O=C(Oc1coc(CSc2ncccn2)cc1=O)c1ccc(Br)cc1`, the IC50 was > 79 µM (inactive).

Consider `O=C(Oc1coc(CSc2ncccn2)cc1=O)c1cccc([N+](=O)[O-])c1`, for which the IC50 was > 79 µM (inactive).

Take `CCCCOc1ccc(C(=O)Oc2coc(CSc3ncccn3)cc2=O)cc1`: the IC50 is > 79 µM (inactive).

In the case of `Cc1ccc(N=C2C(=O)Nc3ccc(Br)cc32)cc1`, the IC50 was 3.92 µM.

Take `COc1cccc(C(=O)Oc2coc(CSc3nccc(C)n3)cc2=O)c1`: the IC50 is > 79 µM (inactive).

In the case of `O=C(Oc1coc(CSc2ncccn2)cc1=O)c1ccc(S(=O)(=O)N2CCCC2)cc1`, the IC50 was > 79 µM (inactive).

Turning to `Cc1ccnc(SCc2cc(=O)c(OC(=O)c3ccc([N+](=O)[O-])cc3)co2)n1`, the IC50 is > 79 µM (inactive).

For the compound `O=C(CNc1ccccc1C(=O)O)c1ccccc1`, the concentration for half-maximal inhibition (IC50) was 2.1 µM.

Take `O=C(COC(=O)c1cccnc1)c1ccc(Cl)cc1`: the IC50 is > 79 µM (inactive).

Regarding `O=c1c2cc(Br)ccc2[nH]c(=S)n1Cc1ccccn1`, the IC50 is 15.6 µM.

Take `Cc1ccnc(SCc2cc(=O)c(OC(=O)c3cccs3)co2)n1`: the IC50 is > 79 µM (inactive).

Regarding `Cc1ccnc(SCc2cc(=O)c(OC(=O)c3cc([N+](=O)[O-])ccc3Cl)co2)n1`, the IC50 entry is “inactive”.

Regarding `Cc1cccc2c1NC(=O)C2=Nc1ccc(Cl)cc1`, the IC50 was 14.3 µM.

Turning to `O=C(CNc1cccc(Cl)c1)c1ccc(Br)cc1`, the IC50 was 3.03 µM.

As for `Cc1cc(C)nc(SCc2cc(=O)c(OC(=O)c3cccc([N+](=O)[O-])c3C)co2)n1`, the IC50 is > 79 µM (inactive).

With `COc1ccc(N=C2C(=O)Nc3ccc(C)c(Br)c32)cc1`, the IC50 is > 79 µM (inactive).

For `O=c1cc(CSc2ccc(Cl)cc2)nc(-c2ccccn2)[nH]1`, the IC50 is 9.04 µM.

Take `O=C(O)CN1C(=O)C(=O)c2ccccc21`: the IC50 is > 79 µM (inactive).

Turning to `Cc1ccnc(SCc2cc(=O)c(OCc3ccccc3)co2)n1`, the IC50 was > 79 µM (inactive).

For `CSC1=NC2(CC(c3ccccc3)c3cc(Cl)c(O)cc3O2)CC(C)(C)N1` (stereo unspecified), the IC50 was > 79 µM (inactive).

Consider `Cc1ccnc(SCc2cccc(O)c2)n1`, for which the IC50 is > 79 µM (inactive).

`CC1(C)CC2(CC(c3ccccc3Cl)c3ccc(O)cc3O2)NC(=O)N1` (stereo unspecified): the IC50 is > 79 µM (inactive).

For the compound `CC1(C)CC2(CC(c3ccccc3Cl)c3cc(Cl)c(OC(=O)C4CC4)cc3O2)NC(=S)N1` (stereo unspecified), the IC50 was > 79 µM (inactive).

On to `O=c1cc(CCl)occ1O`, for which the IC50 is > 79 µM (inactive).

In the case of `C=CCOc1cccc(CSc2nccc(C)n2)c1`, the IC50 was > 79 µM (inactive).

`COc1ccccc1NCC(=O)c1ccc(Cl)cc1`: the IC50 was 1.93 µM and 2.19 µM.

On to `Cc1cc(C)nc(SCc2ccc(O)c(Cl)c2)n1`, for which the IC50 is > 79 µM (inactive).

As for `COc1ccc(C(=O)CNc2cccc(F)c2)cc1`, the IC50 was 18.8 µM.

On to `Cc1cccc(C2CC3(CC(C)(C)NC(=O)N3)Oc3cc(O)c(Cl)cc32)c1` (stereo unspecified), for which the IC50 was > 79 µM (inactive).

Regarding `Cc1ccc(C)c(NCC(O)c2ccc(Cl)cc2)c1` (stereo unspecified), the IC50 was > 79 µM (inactive).

`Cc1ccnc(SCc2cc(=O)c(OC(=O)c3ccccc3Cl)co2)n1`: the IC50 is > 79 µM (inactive).

Turning to `CCOC(=O)C1=NNC(C(=O)c2ccc(Cl)cc2)C1c1ccccc1` (stereo unspecified), the IC50 entry was “inactive”.

Consider `O=C(Oc1coc(CSc2ncccn2)cc1=O)c1ccccc1`, for which the IC50 is > 79 µM (inactive).

As for `Cc1ccccc1NCC(O)c1ccc(Cl)cc1` (stereo unspecified), the IC50 is > 79 µM (inactive).

As for `Cc1ccnc(SCc2cc(=O)c(OC(=O)c3ccccc3C)co2)n1`, the IC50 is > 79 µM (inactive).

For the compound `Cn1c(=O)c(C(=S)NC(=O)C2CC2)c(N)n(Cc2ccccc2)c1=O`, the IC50 entry is “inactive”.

Take `Cc1cc(C)nc(SCc2cc(=O)c(OC(=O)c3ccc(Cl)c([N+](=O)[O-])c3)co2)n1`: the IC50 was > 79 µM (inactive).

With `Cc1ccnc(SCc2cc(=O)c(OC(=O)c3ccco3)co2)n1`, the IC50 is > 79 µM (inactive).

In the case of `Cc1cc(C)nc(NNS(=O)(=O)c2c(F)cc(F)cc2Br)n1`, the IC50 was 5.01 µM.

As for `O=C(Oc1coc(CSc2ncccn2)cc1=O)c1ccc(S(=O)(=O)N2CCCCC2)cc1`, the IC50 was > 79 µM (inactive).

Regarding `Cc1ccnc(SCc2cc(=O)c(OC(=O)c3ccc(C(F)(F)F)cc3)co2)n1`, the IC50 was > 79 µM (inactive).

Turning to `Cc1ccc(C(=O)CNc2ccccc2)cc1`, the IC50 was 3.37 µM.
